Among the data in PubChem BioAssay (NCI) are GI50 and TGI values, retold here.

Test in all cases: NCI anticancer screen, dose series, 48 h
The test system of assay [1] is NCI-H23 lung.
Assay [2] has as its system 786-0 renal.
For assay [3], the system named is HT29 colon.
The subject of assay [4] is SNB-19 CNS.
Assay [5] deals with HCC-2998 colon.
Assay [6] concerns SNB-75 CNS.
The subject of assay [7] is K-562 leukemia.
Assay [8] relates to MOLT-4 leukemia.

SMILES strings stand for the structures. Values joined by “and” are separate entries in the source; they are usually repeats but may differ in a detail not shown here. Identical values can stand only once.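 Method: 48-hour compound exposure of cells in 96-well plates, five concentrations, linear interpolation of endpoints. Here, GI50 denotes the concentration required for 50% inhibition of growth. TGI denotes the concentration required for complete inhibition of growth.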

Turning to `OCC(O)CC[CH2][Sn]([Br])([c]1ccccc1)[c]1ccccc1` (configuration not stated), the GI50 in assay [1], in assay [2], in assay [3], in assay [4], in assay [5] and in assay [6] was > 100 µM in each case. For the same compound, the GI50 in assay [7] was > 100 µM. The TGI in assay [1], in assay [2], in assay [3], in assay [4], in assay [5] and in assay [6] was > 100 µM throughout. Besides, the TGI in assay [7] was > 100 µM.
In the case of `O=C(O)CNS(=O)(=O)c1ccc(NCc2ccccc2)cc1`, the TGI in assay [1], in assay [2], in assay [3], in assay [8], in assay [4] and in assay [5] was > 100 µM each time. In addition, the TGI in assay [6] and in assay [7] was > 100 µM in each case.
On to `O=C(/N=N/C(=O)OCc1ccccc1)OCc1ccccc1`, for which the TGI in assay [1], in assay [2], in assay [3], in assay [8], in assay [4] and in assay [5] was > 100 µM throughout. In addition, the TGI in assay [6] and in assay [7] was > 100 µM in each case.
Consider `[Cl-].[Dy+3].[O-]/N=C(\c1ccccc1)c1ccccn1.[O-]/N=C(\c1ccccc1)c1ccccn1.[O-]/N=C(\c1ccccc1)c1ccccn1`, for which the GI50 in assay [1] was 37.2 µM; in assay [2], 32.2 µM; in assay [3], 45.9 µM; in assay [8], 8.47 µM; in assay [4] it was 38 µM; in assay [5], 27.6 µM. In addition, the GI50 in assay [6] was 3.54 µM; in assay [7], 35.9 µM. Moreover, the TGI was > 100 µM in assay [1]; 96.6 µM in assay [2]; > 100 µM in assay [3]; 78.7 µM in assay [8]; > 100 µM in assay [4]; 88.8 µM in assay [5]. Moreover, the TGI in assay [6] is 22.1 µM; in assay [7], > 100 µM.
As to `CC(=O)CNC(=O)OC(C)(C)C`, the TGI in assay [1], in assay [2], in assay [3], in assay [8], in assay [4] and in assay [6] was > 100 µM throughout. The TGI in assay [7] is > 100 µM.
Take `CCC[CH2][Sn]1([CH2]CCC)[O]Cc2nc(C)ccc2[O]1`: the GI50 was 1.84 µM in assay [1]; 5.04 µM in assay [2]; 12.8 µM in assay [3]; 3.04 µM in assay [8]; 3.95 µM in assay [4]; 7.86 µM in assay [5]. The results for the GI50 in assay [6] and in assay [7] were 4.63 µM and 3.17 µM, respectively. Moreover, the TGI amounted to 4.79 µM in assay [1]; 16.8 µM in assay [2]; 29.1 µM in assay [3]; 10.7 µM in assay [8]; 14.9 µM in assay [4]; 21.3 µM in assay [5]. Besides, the TGI worked out at 18.8 µM in assay [6] and 10.5 µM in assay [7].
`NC(=O)C(=O)N/N=C(\CC1(O)C(=O)Nc2ccccc21)c1ccc2ccccc2c1` (configuration not stated): the TGI in assay [1] is 76.7 µM; in assay [2], > 100 µM; in assay [3], > 100 µM; in assay [8] it was 53.5 µM; in assay [4] it was > 100 µM; in assay [5], 87.9 µM. For the same compound, the TGI in assay [6] is > 100 µM; in assay [7] it was 61.7 µM.
Consider `O=c1/c(=C/c2ccco2)sc2nc3ccccc3n12`, for which the GI50 in assay [1], in assay [2], in assay [3], in assay [8], in assay [4] and in assay [5] was > 100 µM in each case. In addition, the values for the GI50 in assay [6] and in assay [7] were > 10 µM and > 100 µM, respectively. The TGI in assay [1], in assay [2], in assay [3], in assay [8], in assay [4] and in assay [5] was > 100 µM in each case. The TGI in assay [6] and in assay [7] was > 100 µM each time.
In the case of `CCC[CH2][Sn]([CH2]CCC)([O]C(=O)c1cccnc1SC)[O]C(=O)c1cccnc1SC`, the GI50 was 0.771 µM in assay [1]; 0.67 µM in assay [2]; 1.61 µM in assay [3]; 0.149 µM in assay [8]; 1.46 µM in assay [4]; 1.3 µM in assay [5]. Further, the GI50 in assay [6] is 0.673 µM; in assay [7] it was 0.0482 µM. Moreover, the TGI in assay [1] was found to be 2.1 µM; in assay [2], 1.98 µM; in assay [3], 3.22 µM; in assay [8], 0.929 µM; in assay [4], 2.78 µM; in assay [5], 2.57 µM. The TGI in assay [6] amounted to 2.02 µM; in assay [7], 0.372 µM.
On to `COc1ccc(/C=C/CN(C)CCc2ccccc2)cc1OC`, for which the TGI in assay [1], in assay [2], in assay [3], in assay [8], in assay [4] and in assay [5] was > 100 µM each time. Also, the TGI in assay [6] and in assay [7] was > 100 µM each time.
On to `O=C1C2c3[nH]c4ccccc4c3C3CCCCCCC3C2C(=O)N1c1ccccc1` (configuration not stated), for which the TGI in assay [1] is 70.2 µM; in assay [2], 26.5 µM; in assay [3], > 100 µM; in assay [5], > 100 µM; in assay [6] it was 5.33 µM; in assay [7], 24.9 µM.
For `CCc1ccc(/C=C\c2cc(OC)c(OC)c(OC)c2)cc1`, the GI50 in assay [1] was 0.039 µM; in assay [2], 0.0353 µM; in assay [4], 0.0176 µM; in assay [5] it was 0.0577 µM; in assay [6], 0.0261 µM. The TGI in assay [1] was 0.338 µM and 0.114 µM; in assay [2] it was 14 µM; in assay [3], 0.527 µM and 0.121 µM; in assay [5] it was 0.342 µM and 0.438 µM; in assay [6] it was > 100 µM.
Take `O=C1CCC(=O)N2CCCCN12`: the TGI in assay [1], in assay [2], in assay [3], in assay [8], in assay [4] and in assay [5] was > 100 µM each time. In addition, the TGI in assay [6] and in assay [7] was > 100 µM each time.
`O=C1/C(=C/c2ccccc2)CNC/C1=C\c1ccccc1`: the TGI in assay [1] stood at 4.27 µM; in assay [2] it was 2.93 µM; in assay [3], 3.13 µM; in assay [8], 3.36 µM; in assay [4] it was 11.9 µM; in assay [5], 3.33 µM. Further, the TGI was 11.6 µM in assay [6] and > 23.8 µM in assay [7].
On to `O=C(c1ccccc1)c1nnc(C(=O)c2ccccc2)nn1`, for which the TGI in assay [1], in assay [2], in assay [3], in assay [8], in assay [4] and in assay [5] was > 344 µM in each case. The TGI in assay [6] and in assay [7] was > 344 µM throughout.
As to `CC1=NN(C(=O)Nc2ccccc2)C(=O)C2CCC(=O)N12` (configuration not stated), the TGI in assay [1], in assay [2], in assay [8], in assay [4], in assay [5] and in assay [6] was > 100 µM each time. Also, in assay [7], the TGI is > 100 µM.
On to `Cc1cc2c(cc1C)[n+](=O)c(C(=O)C/C(=N/NC(=O)CC#N)C(=O)Nc1ccccc1C(F)(F)F)c(C)n2[O-]`, for which the TGI in assay [1], in assay [2], in assay [3], in assay [8], in assay [4] and in assay [5] was > 100 µM in each case. Moreover, the TGI in assay [6] and in assay [7] was > 100 µM each time.
On to `CCOC(=O)[C]1([Bi]([CH3])[CH3])N=NC(C(=O)OC)=C1C(=O)OC` (configuration not stated), for which the GI50 is 18 µM in assay [1]; 18.8 µM in assay [2]; 19.3 µM in assay [3]; 23.3 µM in assay [8]; 26 µM in assay [4]; 16.4 µM in assay [5]. Further, the GI50 in assay [6] is 15.6 µM; in assay [7], 16.5 µM. Moreover, the TGI in assay [1] was found to be 35 µM; in assay [2], 33.2 µM; in assay [3], 39.4 µM; in assay [8] it was 63.9 µM; in assay [4], 66 µM; in assay [5], 30.7 µM. Also, the TGI in assay [6] was 29.9 µM; in assay [7], 65.7 µM.
On to `COc1ccc(C2=CC3CCC2C3)cc1` (configuration not stated), for which the TGI in assay [1], in assay [2], in assay [3], in assay [8], in assay [4] and in assay [6] was > 100 µM each time. Further, the TGI in assay [7] was > 100 µM.
With `O=C1CCC2(c3ccc(F)cc3)Nc3cc(Cl)ccc3N12` (configuration not stated), the TGI in assay [1], in assay [2], in assay [3], in assay [8], in assay [4] and in assay [6] was > 100 µM each time. Further, the TGI in assay [7] is > 100 µM.
